Test results published in patent US6855730B2, “3-methylidenyl-2-indolinone modulators of protein kinase” (Sugen, Inc., priority 1998, dated 2005).

Tests used:
pyk2 = pyk2 (Homo sapiens, UniProt Q14289); assay: bio pyk2 assay; format: biochemical
EGFR = EGFR (Homo sapiens, UniProt P00533); assay: Biochemical EGFR assay (ELISA, A431 cell lysate); design: A431 cell lysate (Screening Lab, SUGEN, Inc.); host or cells: A431; settings: read-out: bio EGFr IC50
Summary of the method: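 EGFR captured from A431 cell lysate onto anti-EGFR-coated plates, then incubated with test compound for 30 min at room temperature. Tyrosine phosphorylation with ATP/MnCl2 was stopped with EDTA after 5 min and detected by anti-phosphotyrosine ELISA with peroxidase/ABTS read-out.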

[1] = target: Myc-GyrB-FGFR fusion protein (Homo sapiens, UniProt P11362); assay: Biochemical FGFR assay (ELISA); settings: read-out: bio fgfR1 IC50
flkGST = target: T1, flkGST (Homo sapiens, UniProt P35968); assay: bio flkGST assay; format: biochemical
T1 construct: GST
T1 sequence (P35968 786-1356 limits assumed): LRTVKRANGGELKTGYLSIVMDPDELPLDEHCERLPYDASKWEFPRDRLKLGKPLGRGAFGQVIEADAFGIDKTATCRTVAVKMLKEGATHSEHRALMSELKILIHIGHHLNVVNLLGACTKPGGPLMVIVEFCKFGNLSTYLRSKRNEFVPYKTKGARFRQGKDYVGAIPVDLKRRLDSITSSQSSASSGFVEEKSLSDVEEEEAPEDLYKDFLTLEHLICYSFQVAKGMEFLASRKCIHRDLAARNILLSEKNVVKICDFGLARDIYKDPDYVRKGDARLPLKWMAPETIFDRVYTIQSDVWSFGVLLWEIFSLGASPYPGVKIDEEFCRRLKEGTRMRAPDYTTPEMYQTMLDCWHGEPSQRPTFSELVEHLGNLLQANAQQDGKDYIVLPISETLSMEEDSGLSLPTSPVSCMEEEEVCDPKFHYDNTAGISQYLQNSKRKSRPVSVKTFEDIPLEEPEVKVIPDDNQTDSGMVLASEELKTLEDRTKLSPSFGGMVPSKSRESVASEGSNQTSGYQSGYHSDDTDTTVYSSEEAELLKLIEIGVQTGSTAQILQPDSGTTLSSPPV

Chain of Myc-GyrB-FGFR fusion protein (P11362 478-767 limits assumed): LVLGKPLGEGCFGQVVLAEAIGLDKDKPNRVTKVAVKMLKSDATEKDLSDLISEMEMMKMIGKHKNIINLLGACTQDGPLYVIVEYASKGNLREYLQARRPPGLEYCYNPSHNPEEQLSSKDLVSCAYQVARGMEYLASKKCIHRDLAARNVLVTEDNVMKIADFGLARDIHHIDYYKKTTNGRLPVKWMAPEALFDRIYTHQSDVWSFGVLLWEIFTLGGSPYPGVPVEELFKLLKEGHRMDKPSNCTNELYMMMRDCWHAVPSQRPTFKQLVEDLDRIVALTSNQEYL
Chain of pyk2 (Q14289 whole entry, species assumed): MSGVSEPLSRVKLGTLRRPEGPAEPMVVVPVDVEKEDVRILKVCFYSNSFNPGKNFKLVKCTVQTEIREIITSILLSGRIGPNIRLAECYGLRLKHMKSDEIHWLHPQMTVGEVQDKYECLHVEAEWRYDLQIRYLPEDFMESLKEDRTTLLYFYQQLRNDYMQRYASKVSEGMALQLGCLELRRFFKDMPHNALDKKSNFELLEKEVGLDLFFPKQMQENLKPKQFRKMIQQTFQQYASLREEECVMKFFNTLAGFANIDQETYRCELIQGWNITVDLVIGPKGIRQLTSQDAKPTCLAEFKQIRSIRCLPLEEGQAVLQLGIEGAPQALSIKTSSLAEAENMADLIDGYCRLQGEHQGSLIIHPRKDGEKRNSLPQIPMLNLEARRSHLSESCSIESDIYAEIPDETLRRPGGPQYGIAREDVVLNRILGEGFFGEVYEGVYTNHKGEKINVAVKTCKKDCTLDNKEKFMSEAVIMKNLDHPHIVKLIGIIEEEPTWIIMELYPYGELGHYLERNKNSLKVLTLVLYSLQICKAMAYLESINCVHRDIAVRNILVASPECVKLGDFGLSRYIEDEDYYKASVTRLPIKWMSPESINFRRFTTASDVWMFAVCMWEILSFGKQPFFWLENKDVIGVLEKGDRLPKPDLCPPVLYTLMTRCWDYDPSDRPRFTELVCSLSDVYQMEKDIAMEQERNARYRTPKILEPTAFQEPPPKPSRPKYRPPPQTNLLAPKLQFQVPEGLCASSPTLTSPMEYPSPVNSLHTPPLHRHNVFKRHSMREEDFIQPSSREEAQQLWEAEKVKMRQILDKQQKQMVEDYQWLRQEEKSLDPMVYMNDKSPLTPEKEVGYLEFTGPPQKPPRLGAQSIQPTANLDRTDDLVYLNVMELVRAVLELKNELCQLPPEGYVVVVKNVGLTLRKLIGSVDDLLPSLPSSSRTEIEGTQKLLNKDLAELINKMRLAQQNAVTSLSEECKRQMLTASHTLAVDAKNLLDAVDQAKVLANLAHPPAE
Chain of EGFR (P00533 25-1210): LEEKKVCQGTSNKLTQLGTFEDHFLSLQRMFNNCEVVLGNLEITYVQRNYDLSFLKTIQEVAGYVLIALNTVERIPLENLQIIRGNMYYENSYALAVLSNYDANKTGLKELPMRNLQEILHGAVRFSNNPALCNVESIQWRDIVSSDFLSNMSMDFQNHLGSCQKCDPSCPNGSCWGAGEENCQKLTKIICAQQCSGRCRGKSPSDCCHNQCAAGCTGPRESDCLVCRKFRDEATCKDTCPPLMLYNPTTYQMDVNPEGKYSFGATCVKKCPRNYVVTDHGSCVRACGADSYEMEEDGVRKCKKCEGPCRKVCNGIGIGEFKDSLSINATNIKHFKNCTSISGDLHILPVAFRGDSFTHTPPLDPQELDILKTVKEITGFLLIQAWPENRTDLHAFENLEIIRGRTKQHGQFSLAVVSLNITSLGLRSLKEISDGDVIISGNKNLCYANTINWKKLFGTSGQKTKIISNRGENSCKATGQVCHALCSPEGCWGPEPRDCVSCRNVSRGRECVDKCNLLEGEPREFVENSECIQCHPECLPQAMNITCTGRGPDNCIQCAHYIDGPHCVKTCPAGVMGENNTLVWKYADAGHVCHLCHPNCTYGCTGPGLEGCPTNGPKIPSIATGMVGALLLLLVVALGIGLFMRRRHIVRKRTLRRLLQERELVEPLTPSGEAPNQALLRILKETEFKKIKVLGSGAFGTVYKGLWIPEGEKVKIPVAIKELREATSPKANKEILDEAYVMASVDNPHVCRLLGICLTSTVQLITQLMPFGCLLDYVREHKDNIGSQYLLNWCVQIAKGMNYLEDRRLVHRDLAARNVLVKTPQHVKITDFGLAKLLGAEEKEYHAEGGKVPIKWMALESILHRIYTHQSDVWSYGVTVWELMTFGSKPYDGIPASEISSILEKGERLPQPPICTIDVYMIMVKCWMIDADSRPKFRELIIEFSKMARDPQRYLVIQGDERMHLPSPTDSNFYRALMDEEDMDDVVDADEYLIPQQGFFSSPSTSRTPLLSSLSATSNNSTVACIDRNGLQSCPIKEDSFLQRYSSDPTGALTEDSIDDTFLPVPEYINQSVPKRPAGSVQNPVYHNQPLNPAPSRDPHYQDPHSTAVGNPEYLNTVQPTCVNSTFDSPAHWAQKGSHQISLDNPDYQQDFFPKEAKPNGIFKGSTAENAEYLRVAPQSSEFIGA

| IC50 (pyk2) [µM] | IC50 (EGFR) [µM] | IC50 [1] [µM] | IC50 (flkGST) [µM] | Compound |
| --- | --- | --- | --- | --- |
| > 100 | > 100 | 4.52 | 1.84 | Nc1ccc2c(c1)/C(=C/c1ccc3[nH]ccc3c1)C(=O)N2 [Example 179, 5-Amino-3-(1H-indol-5-ylmethylene)-1,3-dihydro-indol-2-one] |
| 75.8 | > 100 | 13.8 | > 20 | Cc1[nH]c2ccccc2c1/C=C1\C(=O)Nc2ccc(N)cc21 [Example 187, 5-Amino-3-(2-methyl-1H-indol-3-ylmethylene)-1,3-dihydroindol-2-one] |
| 2.57 | > 100 | 0.41 | 1.85 | O=C1Nc2ccc(C(=O)O)cc2/C1=C/c1c[nH]c2ccccc12 [Example 174, 3-(1H-Indol-3-ylmethylene)-2-oxo-2,3-dihydro-1H-indole-5-carboxylic acid] |
|  | > 12.5 | 2.27 |  | O=C(O)CCc1c(/C=C2\C(=O)Nc3ncccc32)[nH]c2c1CCCC2 [Example 203, 3-[2-(2-Oxo-1,2-dihydropyrrolo[2,3-b]pyridin-3-ylidenemethyl)-4,5,6,7-tetrahydro-1H-indol-3-yl]-propionic acid] |
|  | > 100 | 0.29 | 0.1 | Cc1cc(CCC(=O)O)c(/C=C2\C(=O)Nc3ccc(Br)cc32)[nH]1 [Compound 116, 3-[2-(5-Bromo-2-oxo-1,2-dihydroindol-3-ylidenemethyl)-5-methyl-1H-pyrrol-3-yl]-propionic acid] |
|  | > 100 |  |  | COc1c(C(C)C)cc(/C=C2/C(=O)Nc3ccc(Cl)cc32)cc1C(C)C [Example 2, 5-Chloro-3-(3,5-diisopropyl-4-methoxybenzylidene)-1,3-dihydroindol-2-one] |
| > 100 | 6.13 | 1.6 | 1.34 | O=C1Nc2ccc(C(=O)O)cc2/C1=C/c1ccc2[nH]ccc2c1 [Example 177, 3-(1H-Indol-5-ylmethylene)-2-oxo-2,3-dihydro-1H-indole-5-carboxylic acid] |
| 37.1 | > 100 | 5.94 | 18.7 | Cc1[nH]c2ccccc2c1/C=C1\C(=O)Nc2ccc(C(=O)O)cc21 [Example 182, 3-(2-Methyl-1H-indol-3-ylmethylene)-2-oxo-2,3-dihydro-1H-indole-5-carboxylic acid] |
| < 0.78 | > 100 | 5.42 | 1.11 | Cc1c(/C=C2\C(=O)Nc3ccc(N)cc32)[nH]c2ccccc12 [Example 180, 5-Amino-3-(3-methyl-1H-indol-2-ylmethylene)-1,3-dihydroindol-2-one] |
| 14.8 | > 100 | 0.28 | 10.5 | NS(=O)(=O)c1ccc2c(c1)/C(=C/c1c[nH]c3ccccc13)C(=O)N2 [Example 172, 3-(1H-Indol-3-ylmethylene)-2-oxo-2,3-dihydro-1H-indole-5-sulfonic acid amide] |
|  | > 100 | > 20 |  | O=C1Nc2ccc(N=Cc3cc4ccccc4[nH]3)cc2C1=Cc1cc2ccccc2[nH]1 [Example 171, 3-(1H-indol-2-ylmethylene)-5-[(1H-indol-2-ylmethylene)-amino]-1,3-dihydroindol-2-one] |
| 9.8 | 22 | 0.29 | 11.1 | CNS(=O)(=O)c1ccc2c(c1)/C(=C/c1cc3ccccc3[nH]1)C(=O)N2 [Example 173, 3-(1H-Indol-2-ylmethylene)-2-oxo-2,3-dihydro-1H-indole-5-sulfonic acid methylamide] |
|  | > 100 |  |  | COc1c(C(C)C)cc(/C=C2/C(=O)Nc3ccccc32)cc1C(C)C [Example 1, 3-(3,5-Diisopropyl-4-methoxybenzylidene)-1,3-dihydroindol-2-one] |
|  | > 100 | 4.26 | 3.31 | CCOC(=O)c1c(C)[nH]c(/C=C2\C(=O)Nc3ccc(Br)cc32)c1CCC(=O)O [Compound 114, 5-(5-Bromo-2-oxo-1,2-dihydroindol-3-ylidenemethyl)-4-(2-carboxyethyl)-2-methyl-1H-pyrrole-3-carboxylic acid ethyl ester] |
